The results in this text go back to publication PMC5876388 (Scientific Reports, 2018).

“Also recorded” adds a separate entry of the source. Read-outs that look alike come from different tables or passages of the source.

The subject of data set [1] is Notch signaling (LS174T Notch cells). The data set is described as follows: Notch signaling transcriptional activity assay (luciferase reporter, T-REx system). The following applies: for IC50: read-out: IC50 of Notch signal inhibitory activity (luciferase). The data set is classed as cell-based. An excerpt:
We constructed a cell-based reporter assay with the T-Rex system to evaluate Notch signaling inhibitory activity. Without doxycycline (Dox), the tetracycline repressor (TetR) inhibits the expression of N-terminally FLAG-tagged mouse Notch1(1704–2531), which is 40 aa longer than NICD at the N-terminus. In the presence of Dox, Dox binds to the TetR to release the inhibition of expression of Notch1(1704–2531). Cleavage of Notch1(1704–2531) by γ-secretase generates NICD, which then translocates to the nucleus and forms a heterotrimer with RBP-J driving luciferase transcription (Fig. 2). This assay cells (LS174T Notch cells) was stably incorporated with pGL4.20 luciferase plasmid which has 12 × RBP-J binding site (12 copies of […])-β-globin promoter. Cell viability was measured using a fluorometric microculture cytotoxicity assay. […] The composition of the G. speciosa MeOH extract was partitioned successively with hexane, EtOAc, nBuOH, and water.
Figure 2 The T-REx assay system. Without Dox, expression of Notch1(1704–2531) is suppressed by TetR. The addition of Dox inactivates TetR to initiate expression of Notch1(1704–2531), which is then cleaved by endogenous γ-secretase to form NICD. NICD then translocates to the nucleus and forms a heterotrimer with RBP-J and MAML that binds to a 12× RBP-J binding site to drive luciferase expression. Luciferase activity was detected as Notch signaling pathway activity. Dox: doxycycline, TetR: tetracycline repressor, Luc.: luciferase.
Assay cells (LS174T Notch cells: 2 × 10^4 cells/well) were incubated in a 96-well white plate at 37 °C for 12 h. After incubation, 50 ng/mL Dox was added to each well to induce expression of exogenous Notch1(1704–2531) protein. After incubation at 37 °C for 12 h, the medium was changed to Dox-free medium containing individual samples. Luciferase activity was measured after treatment at 37 °C for 12 h. Cell viability was evaluated by the FMCA method at the same time. These assays were performed in 0.1% DMSO (n = 3). Error bars represent SD.
In a 96-well white plate, Cells (LS174T Notch cells; 2 × 10^4 cells per well) were cultured at 37 °C for 12 h. To express Notch1(1704–2531) protein in the cells, doxycycline (50 ng/mL) was added to each well, and cells were cultured at 37 °C for 12 h. Medium was changed to doxycycline-free medium containing each sample, then cells were incubated with at 37 °C for 12 h. A microplate luminometer (Thermo Fisher Scientific Inc., Waltham, USA) and the Bright-Glo™ Luciferase Assay System (Promega Co., Madison, USA) were used for measurement of Luciferase activity. Fluorometric Microculture Cytotoxicity Assay (FMCA) was used for measurement of cell viability of the sample-treated cells. After incubation of assay cells (2×10^4 cells per well) in a 96-well black plate at 37 °C for 24 h, samples addition was performed at the same time as the luciferase assay. The assay cells were cultures at 37 °C for 12 h. A fluorescence plate reader (Thermo Fisher Scientific Inc., Waltham, USA) was used for determination of cell viability by FMCA.
Background: A reporter such as luciferase makes a cellular process visible.

A further data set concerns HPB-ALL cells. The data set is described as follows: Cytotoxicity test, AlamarBlue. As for the experimental part:
HPB-ALL cells (1 × 10^4 cells per well) were incubated in 96-well black plates at 37 °C for 72 h. Media also contained different concentrations of compound. After incubation, AlamarBlue was added 10 μL per well. After incubation for 4 h, using a fluorescence plate reader, fluorescence was measured and cell viability was determined. Data are presented as the mean with SD from three independent experiments. […] The effect on protein expression was analyzed by Western blotting. β-Actin was used as internal control. (D,E) Relative protein levels of NICD and HES1 analyzed by densitometry. Data are presented as the mean with SD from three independent experiments. *P < 0.05 is considered statistically significant. P values were analyzed by Student’s t test.
HPB-ALL cells (1 × 10^4 cells per well) were incubated in 96-well black plates in 100 μL of RPMI-1640 medium with 10% FBS, Streptomycin (100 μg/mL) and Penicillin (100 unit/mL). Media also contained different concentrations of compound. Cells were incubated at 37 °C for 72 h. After incubation, AlamarBlue (00–025, DAL1025; Thermo Fisher Scientific Inc., Waltham, USA) was added 10 μL per well. After incubation for 4 h, using a fluorescence plate reader (Thermo Fisher Scientific Inc., Waltham, USA), fluorescence was measured and cell viability was determined.

The mark [2] stands for this setting: Homo sapiens, LS174T Notch cells, 12 h treatment after Dox induction.
Setting [3] is: LS174T Notch cells, 12 h treatment after Dox induction.

As for `COc1cc2oc3cc(O)c(CC=C(C)C)c(O)c3c(=O)c2c(CC=C(C)C)c1OC` [Compound 10, cowaxanthone B], in data set [1] (setting [2]), the IC50 was 15 µM.

For the compound `COc1cc2oc3cc(O)c(CC=C(C)C)c(O)c3c(=O)c2c(CC=C(C)C)c1O` [Compound 8, 6-methoxy-γ-mangostin], in data set [1] (setting [2]), the IC50 was > 40 µM. In addition, the “IC50 of Notch signal inhibitory activity (luciferase)” value in data set [1] (setting [3]) is “weak activity or were inactive”.

In the case of `C[C@H](NC(=O)Cc1cc(F)cc(F)c1)C(=O)N[C@H](C(=O)OC(C)(C)C)c1ccccc1` [DAPT, N-[N-(3,5-difluorophenacetyl)-L-alanyl]-S-phenylglycine t-butyl ester, reference compound], the IC50 is > 20 µM in the data set with HPB-ALL cells and 0.12 µM in data set [1] (setting [3]).

`COc1c(O)cc2oc3cc4c(c(O)c3c(=O)c2c1CC=C(C)C)C=CC(C)(C)O4` [Compound 9, 9-hydroxycalabaxanthone]: the IC50 in data set [1] (setting [2]) was found to be 19.6 µM.

Regarding `COc1cc2c(=O)c3c(O)c(C/C=C(\C)CCC=C(C)C)c(O)cc3oc2cc1O` [Compound 6, cowaxanthone], the “IC50 of Notch signal inhibitory activity (luciferase)” value in data set [1] (setting [3]) was “weak activity or were inactive; also recorded: inactive”.

For the compound `COc1c(O)cc2oc3cc(O)c(CC=C(C)C)c(O)c3c(=O)c2c1CC=C(C)C` [Compound 1, α-mangostin], the IC50 in data set [1] (setting [2]) worked out at 8 µM.

On to `COc1c(O)cc2oc3cc(O)cc(O)c3c(=O)c2c1C/C=C(\C)CCC=C(C)C` [Compound 5, rubraxanthone], for which the half-maximal inhibitory concentration (IC50) in data set [1] (setting [2]) was > 40 µM. In data set [1] (setting [3]), the “IC50 of Notch signal inhibitory activity (luciferase)” value was “weak activity or were inactive”.

As for `CC(C)=CCC/C(C)=C/Cc1c(O)c(O)cc2oc3cc(O)c(CC=C(C)C)c(O)c3c(=O)c12` [Compound 4, norcowanin], the IC50 in data set [1] (setting [2]) worked out at 10.5 µM.

As to `COc1cc2oc3cc(O)c(OC)c(CC=C(C)C)c3c(=O)c2c(O)c1CC=C(C)C` [Compound 7, β-mangostin], in data set [1] (setting [2]), the IC50 is 7.5 µM.

`C=C(C)c1cc2c(O)c3c(=O)c4c(CC=C(C)C)c(OC)c(O)cc4oc3cc2o1` [Compound 12]: in data set [1] (setting [3]), the “IC50 of Notch signal inhibitory activity (luciferase)” value was “weak activity or were inactive; also recorded: inactive”.

Regarding `COc1c(O)cc2oc3cc(O)c(C/C=C(/C)CO)c(O)c3c(=O)c2c1C/C=C(\C)CCC=C(C)C` [Compound 3, cowanol], in data set [1] (Homo sapiens, LS174T, 12 h), the IC50 was 7.3 µM.

Regarding `COc1c(O)cc2oc3cc4c(c(O)c3c(=O)c2c1C/C=C(\C)CCC=C(C)C)C=CC(C)(C)O4` [Compound 11, fuscaxanthone A], the IC50 in data set [1] (setting [2]) stood at 11.7 µM.

In general, IC50 refers to the concentration that inhibits the measured activity by half.
